The values below come from ChEMBL document CHEMBL3603761 (Bioorg Med Chem, 2015).

Calls of active or inactive are those of the source. The rule behind the calls is not given here.

Data set [1] deals with OVCAR-3. The data set is described as follows: Inhibition of cell migration in human OVCAR3 cells assessed as gap closure distance at 5 uM after 24 hrs by wound healing assay. Type of data set: functional. The following applies: OVCAR-3, 24 h.
Data set [2] has as its system HT-29. Put plainly: Cytotoxicity against human HT-29 cells after 48 hrs by CellTiter-Blue assay. The class given is functional, cell-based. The note with it: HT-29, 48 h.
Data set [3] relates to MeWo. The data set is described as follows: Cytotoxicity against human MeWo cells after 48 hrs by CellTiter-Blue assay. The class given is functional, cell-based.
Data set [4] has as its system SK-OV-3. The data set is described as follows: Inhibition of cell migration in human SKOV3 cells assessed as gap closure distance at 5 uM after 24 hrs by wound healing assay. Type of data set: functional, cell-based.
For data set [5], the system named is MDA-MB-231. The data set is described as follows: Inhibition of cell migration in human MDA-MB-231 cells assessed as gap closure distance at 5 uM after 24 hrs by wound healing assay. The class given is functional. The note with it: MDA-MB-231, 24 h.
A short description of data set [6]: Cytotoxicity against human SB2 cells after 48 hrs by CellTiter-Blue assay. The note with it: SB2, 48 h. The class given is functional, cell-based. (In general: The colour change of resazurin is a common sign of viable cells or microbes.)
The subject of data set [7] is MeWo. Put plainly: Inhibition of cell migration in human MeWo cells assessed as gap closure distance at 5 uM after 24 hrs by wound healing assay. Type of data set: functional, cell-based.
Data set [8] concerns Mus musculus. Put plainly: Toxicity in human MeWo cells xenografted athymic nude mouse assessed as mortality at 50 mg/kg, ip administered every other day of 21 days post tumor cell injection up to 48 days followed by administered 40 mg/kg, ip. Type of data set: organism-based. The note with it: in vivo.
Data set [9] addresses T1, Autotaxin (Homo sapiens, UniProt Q13822). The data set is described as follows: Inhibition of human ATX phosphodiesterase expressed in Sf9 cells assessed as hydrolysis of FS-3 measured after 5 to 25 mins by fluorescence assay.
In data set [10] the test system is OVCAR-3. Put plainly: Inhibition of cell migration in human OVCAR3 cells assessed as gap closure distance at 5 uM after 24 hrs by wound healing assay in presence of 1 uM of LPA. The class given is functional, cell-based.
In data set [11] the test system is MeWo. The data set is described as follows: Antitumor activity against human MeWo cells xenografted in athymic nude mouse assessed as reduction of ATX level in serum at 50 mg/kg, ip administered every other day of 21 days post tumor cell injection. The class given is functional, organism-based. A general note: A xenograft is tissue or cells of one species grown in another, often human tumour cells in immunodeficient mice.

Data set [12] concerns Mus musculus. The data set is described as follows: Toxicity in human MeWo cells xenografted athymic nude mouse assessed as severe dehydration at 50 mg/kg, ip administered every other day of 21 days post tumor cell injection measured on day 45. Type of data set: organism-based. The following applies: in vivo, 504 h.
The test system of data set [13] is PC-3. Put plainly: Cytotoxicity against human PC3 cells after 48 hrs by CellTiter-Blue assay. Type of data set: functional, cell-based. The note with it: PC-3, 48 h.
In data set [14] the test system is MeWo. Put plainly: Antitumor activity against human MeWo cells xenografted in athymic nude mouse assessed as necrotic endothelial cells at 50 mg/kg, ip administered every other day of 21 days post tumor cell injection up to 48 days followed by administered 40 mg/kg, ip using hematoxylin and eosin staining. Type of data set: functional, organism-based.
For data set [15], the system named is Mus musculus. Put plainly: Toxicity in human MeWo cells xenografted athymic nude mouse assessed as mortality at 50 mg/kg, ip administered every other day of 21 days post tumor cell injection measured on day 45. The class given is organism-based. The following applies: in vivo, 504 h.
In data set [16] the test system is MeWo. Put plainly: Cytotoxicity against human MeWo cells assessed as reduction of cell viability after 48 hrs by CellTiter-Blue assay. Type of data set: functional.
Data set [17] relates to MeWo. The data set is described as follows: Antitumor activity against human MeWo cells xenografted in athymic nude mouse assessed as necrosis in tumor at 50 mg/kg, ip administered every other day of 21 days post tumor cell injection up to 48 days followed by administered 40 mg/kg, ip using hematoxylin and eosin staining. The class given is functional, organism-based.
Data set [18] has as its system SK-OV-3. Put plainly: Cytotoxicity against human SKOV3 cells after 48 hrs by CellTiter-Blue assay. The class given is functional, cell-based. The note with it: SK-OV-3, 48 h.
In data set [19] the target is T1, Autotaxin. Put plainly: Irreversible inhibition of human ATX phosphodiesterase activity expressed in Sf9 cells assessed as hydrolysis of FS-3 preincubated for 2 mins before substrate addition measured 1000 fold dilution by fluorescence assay.
Data set [20] concerns MeWo. Put plainly: Inhibition of cell migration in human MeWo cells assessed as gap closure distance at 5 uM after 24 hrs by wound healing assay in presence of 1 uM of LPA. Type of data set: functional, cell-based.
Data set [21] has as its system MDA-MB-231. Put plainly: Cytotoxicity against human MDA-MB-231 cells after 48 hrs by CellTiter-Blue assay. The class given is functional, cell-based. The following applies: MDA-MB-231, 48 h.
Data set [22] relates to SK-OV-3. Put plainly: Inhibition of cell migration in human SKOV3 cells assessed as gap closure distance at 5 uM after 24 hrs by wound healing assay in presence of 1 uM of LPA. Type of data set: functional, cell-based.
The test system of data set [23] is MDA-MB-231. The data set is described as follows: Inhibition of cell migration in human MDA-MB-231 cells assessed as gap closure distance at 5 uM after 24 hrs by wound healing assay in presence of 1 uM of LPA. The class given is functional, cell-based.
Data set [24] relates to OVCAR-3. The data set is described as follows: Cytotoxicity against human OVCAR3 cells after 48 hrs by CellTiter-Blue assay. Type of data set: functional, cell-based. The note with it: OVCAR-3, 48 h.
The target of data set [25] is T1, Autotaxin. Put plainly: Inhibition of human ATX phosphodiesterase expressed in Sf9 cells assessed as hydrolysis of FS-3 preincubated for 2 mins before substrate addition measured after 5 to 25 mins by fluorescence assay.
The subject of data set [26] is MeWo. The data set is described as follows: Antitumor activity against human MeWo cells xenografted in athymic nude mouse assessed as reduction of KC/CXCL-1 level in serum at 50 mg/kg, ip administered every other day of 21 days post tumor cell injection. Type of data set: functional, organism-based.
Data set [27] concerns the target T1, Autotaxin. The data set is described as follows: Inhibition of human ATX phosphodiesterase expressed in Sf9 cells assessed as hydrolysis of FS-3 at 10 uM measured after 5 to 25 mins by fluorescence assay.
Data set [28] concerns MeWo. The data set is described as follows: Antitumor activity against human MeWo cells xenografted in athymic nude mouse assessed as reduction of ATX level in serum at 30 mg/kg, ip administered every other day of 21 days post tumor cell injection. Type of data set: functional, organism-based.
The test system of data set [29] is MeWo. The data set is described as follows: Antitumor activity against human MeWo cells xenografted in athymic nude mouse at 30 mg/kg, ip administered every other day of 21 days post tumor cell injection. The class given is functional, organism-based.

For orientation: inhibition means how much of the control response was suppressed. The term IC50 denotes the concentration that inhibits the measured activity by half. A word on the Ki: it is the dissociation constant of the complex between target and ligand, obtained from inhibition or displacement. For `C=C(CCCCCCCCCCCCCCCC)S(=O)(=O)CCC[N+](C)(C)C.[Cl-]`, the inhibition at 5 µM in data set [1] and in data set [5] was 75% throughout. Also, the IC50 in data set [2] came out at 2110 nM; in data set [3], 4080 nM; in [6], 4890 nM; in [13], 1930 nM; in [18], 6740 nM; in data set [21] it was 390 nM. Moreover, the IC50 in data set [24] amounted to 4440 nM. Besides, the inhibition result in data set [4], in data set [7], in data set [10], in data set [19], in data set [20] and in [22] was “Active” in each case. Further, the inhibition entry in data set [23] was “Active”. The Activity entry in [8] is given as “Non-toxic”; in data set [12], “Toxic”; in data set [15] it was “Toxic”; in data set [16], under 25%. In addition, the Ki in [9] worked out at 3500 nM. Further, the outcome in [11], in data set [14], in data set [17] and in data set [26] was Active. The inhibition entry in data set [25] was “inactive”.

With `C=C(CCCCCC)S(=O)(=O)CCC[N+](C)(C)C`, in data set [27], the inhibition result is “inactive”.

Turning to `C=C(CCCCCCCC/C=C\CCCCCCCC)S(=O)(=O)CCC[N+](C)(C)C`, the inhibitory constant (Ki) in data set [9] worked out at 2430 nM.

Take `O=C1S/C(=C\c2ccc(OCc3cccc(B(O)O)c3)cc2)C(=O)N1Cc1ccc(F)cc1`: the result in [28] and in [29] was inactive. The Activity in data set [16] was under 25%.

Regarding `C=C(CCCCCCCCCCCC)S(=O)(=O)CCC[N+](C)(C)C`, the Ki in data set [9] was 1790 nM.

`O=C(CCN1CCN(C(=O)OCc2cc(Cl)cc(Cl)c2)CC1)c1ccc2[nH]c(=O)oc2c1`: the outcome in data set [28] and in data set [29] was inactive.

Consider `C=C(CCCCCCCCCCCCCCCC)S(=O)(=O)c1ccccc1`, for which the inhibition entry in data set [27] and in data set [19] was “inactive” each time.
